{
  "source": "patent US8012486B2",
  "about": "“Composition for treating atopic dermatitis comprising hirsutenone as an active ingredient” (Chung-Ang University Industry Academic Cooperation …, priority 2009, dated 2011)",
  "format_in_all_cases": "in vivo, mouse",
  "key": {"[1]": {"tested_on": "IL-5", "experiment": "Measurement of IL-5 expression level by ELISA", "conditions": "NC/Nga mice, injection or skin application for 4 weeks, serum and splenocyte, vs negative control", "method": "(§1) Serum was prepared from blood of main artery. Lymphocytes extracted from spleen were cultured. Briefly, extracted spleen was homogenized, filtered through mesh and single cells was isolated. Red blood cells were lysed in RBC lysis buffer and the supernatant was removed by centrifugation. 1×10^6 cells were cultured in 24-well plate containing RPMI media (1 ml). The experiments were performed in media containing cells cultured for 3 days.\n(§2) NC/Nga mice in which atopic dermatitis had been induced were treated with hirsutenone through an injection or skin application for 4 weeks. Blood and spleen were collected from mice and interleukin (IL)-4, IL-5, IL-10 and IL-13 expression level in serum and splenocyte were measured using ELISA. IL-4, IL-5 and IL-13 expression detected in groups of hirsutenone being injected or skin applied was much lower than those of negative control (FIG. 9a, FIG. 9b and FIG. 9c)."}, "[2]": {"tested_on": "iNOS", "experiment": "Measurement of iNOS expression level using western blotting", "conditions": "NC/Nga mice, injection or skin application for 4 weeks, epidermal cells", "method": "(§3) Skin tissue containing epidermal cells was lysed and centrifuged using a centrifuge. The supernatant was electrophoresized on 15% SDS-PAGE (sodium dodecyl sulfate polyacrylamide gel electrophoresis). For analysis of COX-2 and iNOS, proteins separated on gel electrophoresis were transferred into a nitrocellulose membrane and sequentially incubated with a primary antibody (1:1000 in BSA, rabbit polyclonal anti-COX-2 antibody, rabbit polyclonal iNOS antibody; Chemicon, Calif., USA) and a secondary antibody (1:2000 in BSA, anti-goat IgG, anti-rabbit IgG; Chemicon, Calif., USA).\n(§4) NC/Nga mice in which atopic dermatitis had been induced were treated with hirsutenone through an injection or skin application for 4 weeks and mice epidermal cells were collected. To investigate whether hirsutenone has a regulatory activity on immune responses, the expression levels of COX-2 and iNOS were detected using western blotting."}, "[3]": {"tested_on": "IL-4", "experiment": "Measurement of IL-4 expression level by ELISA", "conditions": "NC/Nga mice, injection or skin application for 4 weeks, serum and splenocyte, vs negative control", "method": "as §1, §2"}, "[4]": {"tested_on": "COX-2", "experiment": "Measurement of COX-2 expression level using western blotting", "conditions": "NC/Nga mice, injection or skin application for 4 weeks, epidermal cells", "method": "as §3, §4"}, "[5]": {"tested_on": "eosinophil", "experiment": "Eosinophil count in blood", "conditions": "NC/Nga mice, injection or skin application for 4 weeks, after vs before administration", "method": "Mouse blood was collected into capillary tube and 30 μl of mouse whole blood was diluted 6-fold by addition of 150 μl saline. Eosinophils were counted using a Sysmex XE-2100 hematology analyzer. Slide glass smeared with peripheral blood was prepared and stained with Wright-Giemsa. Eosinophil count was carried out by differentially counting 200 leukocytes.\nNC/Nga mice in which atopic dermatitis had been induced were treated with hirsutenone through an injection or skin application for 4 weeks. Blood was collected from mice before and after administration or application of hirsutenone, and then eosinophil count was measured."}, "[6]": {"tested_on": "COX-2", "experiment": "Measurement of COX-2 expression using real-time PCR", "conditions": "NC/Nga mice, injection or skin application for 4 weeks, epidermal cells", "method": "(§5) The primers used in Real-time PCR are as follows.\n(§6) Total RNA was extracted according to the following steps. Tissue was treated with 1 ml TRIZol reagent and mixed with 200 μl chloroform. After centrifugation at 12,000 rpm for 15 min at 4° C., the supernatant was transferred into a new tube and mixed with ½ vol. of isopropanol. The mixture was again centrifuged at 12,000 rpm for 15 min at 4° C. The supernatant was discarded and total RNA was dissolved in DEPC-water.\n(§7) cDNA was prepared according to the following steps. The isolated total RNA was dissolved in 30 μl DEPC-DW and reverse transcription using 3 μg of total RNA as a template was performed in a reaction mixture (20 μl) containing 1 μl of reverse transcriptase, 2 μl of 10× buffer, 2 μl of 10 mM dNTP (dNTP mix), 1 μl of oligo dT primer, 0.5 μl of RNase inhibitor and 4 μl of 25 mM MgCl2.\n(§8) Each 2 μl of cDNA prepared was amplified using PCR. PCR reaction was performed by 45 cycles of 1 min at 59° C. and 1 min at 94° C. Finally, the mixtures were incubated at 72° C. for 1 min for extension.\nas §4, with “weeks and then mice epidermal” for “weeks and mice epidermal”, “detected using real-time PCR. […]” for “detected using western blotting.”"}, "[7]": {"tested_on": "IgE", "experiment": "Measurement of IgE level by ELISA", "conditions": "NC/Nga mice, injection or skin application for 4 weeks, vs negative control", "method": "as §1\nNC/Nga mice in which atopic dermatitis had been induced were treated with hirsutenone through an injection or skin application for 4 weeks. Blood was collected from mice and IgE expression level was measured using ELISA."}, "[8]": {"tested_on": "iNOS", "experiment": "Measurement of iNOS expression using real-time PCR", "conditions": "NC/Nga mice, injection or skin application for 4 weeks, epidermal cells", "method": "as §5, §6, §7, §8\nas §4, with “weeks and then mice epidermal” for “weeks and mice epidermal”, “detected using real-time PCR. […]” for “detected using western blotting.”"}, "[9]": {"tested_on": "mice in which atopic dermatitis had been induced", "experiment": "Naked-eye observation of atopic dermatitis in animal model", "from_the_text": "To examine treatment efficacy of hirsutenone on atopic dermatitis, the present inventors utilized an experimental animal model in which atopic dermatitis was induced by attachment of mite patch to the skin. Briefly, the patch containing a mite-derived ingredient as a human atopic dermatitis-inducing agent was applied to 5-old-week mice. The hairs of their back were partially removed and mite patch was attached. At 2-week post-application, skin damage equivalent to atopic dermatitis was observed. Mite patch was detached at 18 weeks.\nIn addition to NC/Nga mouse, BABL/c mouse was used as an animal model.\nTo examine treatment efficacy of hirsutenone on atopic dermatitis, mice in which atopic dermatitis had been induced were treated with hirsutenone through an injection or skin application for 4 weeks. Then, external skin morphology was estimated by naked-eye observation so as to determine whether a symptom of atopic dermatitis was relieved. Each group injected or applied with hirsutenone was compared to a negative control group into which hirsutenone was not administered, resulting in the improvement of a symptom of atopic dermatitis. […] FIG. 5d represents a positive control treated with dexamethasone. […] FIG. 5g represents the result of administration of plancol as positive control.\nFIG. 6d represents a positive control treated with dexamethasone. […] FIG. 6g represents the result of administration of plancol as positive control."}, "[10]": {"tested_on": "IL-13", "experiment": "Measurement of IL-13 expression level by ELISA", "conditions": "NC/Nga mice, injection or skin application for 4 weeks, serum and splenocyte, vs negative control", "method": "as §1, §2"}},
  "data": [
    {"smiles": "O=C(/C=C/CCc1ccc(O)c(O)c1)CCc1ccc(O)c(O)c1", "note": "[hirsutenone]", "values": [
      {"measurement": "IL-5 expression level", "setting": "[1]", "value": "much lower"},
      {"measurement": "iNOS expression level (western blotting)", "setting": "[2]", "value": "reduced"},
      {"measurement": "IL-4 expression level", "setting": "[3]", "value": "much lower"},
      {"measurement": "COX-2 expression level (western blotting)", "setting": "[4]", "value": "reduced"},
      {"measurement": "number of eosinophil in blood", "setting": "[5]", "value": "more severely reduced"},
      {"measurement": "COX-2 expression level (real-time PCR)", "setting": "[6]", "value": "significantly decreased"},
      {"measurement": "IgE expression level in blood", "setting": "[7]", "value": "remarkably lower"},
      {"measurement": "iNOS expression level (real-time PCR)", "setting": "[8]", "value": "significantly decreased"},
      {"measurement": "symptom of atopic dermatitis (naked-eye observation)", "setting": "[9]; BABL/c mice, 0.1% hirsutenone by injection, vs PBS negative control", "value": "much more relieved"},
      {"measurement": "symptom of atopic dermatitis (naked-eye observation)", "setting": "[9]; BABL/c mice, 1% hirsutenone by injection, vs PBS negative control", "value": "much more relieved"},
      {"measurement": "symptom of atopic dermatitis (naked-eye observation)", "setting": "[9]; BABL/c mice, 1% hirsutenone ointment applied to skin, vs composition without active ingredient", "value": "much more alleviated"},
      {"measurement": "symptom of atopic dermatitis (naked-eye observation)", "setting": "[9]; NC/Nga mice, 0.1% hirsutenone by injection, 4 weeks, vs PBS negative control", "value": "much more improved"},
      {"measurement": "symptom of atopic dermatitis (naked-eye observation)", "setting": "[9]; NC/Nga mice, 1% hirsutenone by injection, 4 weeks, vs PBS negative control", "value": "much more improved"},
      {"measurement": "symptom of atopic dermatitis (naked-eye observation)", "setting": "[9]; NC/Nga mice, 1% hirsutenone ointment applied to skin, 4 weeks, vs composition without active ingredient", "value": "much more remarkably improved"},
      {"measurement": "IL-13 expression level", "setting": "[10]", "value": "much lower"}
    ]}
  ]
}
